In PubChem BioAssay AID248 (DTP/NCI, 2004):
Where “and” joins values, the source holds several entries; their conditions need not be identical. Equal values may be shown once. Toxic doses and inconclusive results are not listed.

Tested on: L1210 leukemia ip in BDF1 mice, survival T/C
Test: NCI In Vivo Anticancer Drug Screen. Data for tumor model L1210 Leukemia (intraperitoneal) in B6D2F1 (BDF1) mice
Details: endpoint: mean survival time, higher = longer survival
Summary of the method: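 Transplantable tumor model; survival measured in treated vs vehicle control mice. Value = treated/control.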

[1] = dose: 25.0 mg/kg/injection, schedule: Q01DX009 (ip), vehicle: Klucel (hydroxypropylcellulose) (HPC)
[2] = dose: 50.0 mg/kg/injection, schedule: Q01DX009 (ip), vehicle: Klucel (hydroxypropylcellulose) (HPC)
[3] = dose: 100.0 mg/kg/injection, schedule: Q01DX009 (ip), vehicle: Klucel (hydroxypropylcellulose) (HPC)
[4] = dose: 100.0 mg/kg/injection, schedule: Q04DX003 (ip), vehicle: Klucel (hydroxypropylcellulose) (HPC)
[5] = dose: 200.0 mg/kg/injection, schedule: Q04DX003 (ip), vehicle: Klucel (hydroxypropylcellulose) (HPC)
[6] = dose: 400.0 mg/kg/injection, schedule: Q04DX003 (ip), vehicle: Klucel (hydroxypropylcellulose) (HPC)
[7] = dose: 100.0 mg/kg/injection, schedule: Q01DX001 (ip), vehicle: Klucel (hydroxypropylcellulose) (HPC)
[8] = dose: 200.0 mg/kg/injection, schedule: Q01DX001 (ip), vehicle: Klucel (hydroxypropylcellulose) (HPC)
[9] = dose: 100.0 mg/kg/injection, schedule: Q01DX009 (ip), vehicle: saline with Tween-80
[10] = dose: 100.0 mg/kg/injection, schedule: Q04DX003 (ip), vehicle: saline with Tween-80
[11] = dose: 12.5 mg/kg/injection, schedule: Q04DX002 (ip), vehicle: Klucel (hydroxypropylcellulose) (HPC)
[12] = dose: 25.0 mg/kg/injection, schedule: Q04DX002 (ip), vehicle: Klucel (hydroxypropylcellulose) (HPC)
[13] = dose: 200.0 mg/kg/injection, schedule: Q01DX009 (ip), vehicle: saline with Tween-80
[14] = dose: 100.0 mg/kg/injection, schedule: Q01DX001 (ip), vehicle: saline with Tween-80

`Oc1ccccc1OCCOCCCl` was tested, and the T/C (dose: 100.0 mg/kg/injection, schedule: Q04DX002 (sc), vehicle: olive oil, sesame oil, peanut oil) was 93 % of control, the T/C (dose: 200.0 mg/kg/injection, schedule: Q04DX002 (sc), vehicle: olive oil, sesame oil, peanut oil) was 101 % of control and the T/C (dose: 400.0 mg/kg/injection, schedule: Q04DX002 (sc), vehicle: olive oil, sesame oil, peanut oil) was 246 % of control.

`Sc1ccccc1.[Pb]` was tested, and the T/C [1] was 98 % of control, the T/C [2] was 101 % of control and the T/C [3] was 92 % of control and 87 % of control.

With `O=C(CC(=O)c1cccc([N+](=O)[O-])c1)Nc1ccccc1Br` the T/C [4] was 94 % of control, the T/C [5] was 91 % of control and the T/C [6] was 94 % of control.

`COC12C3C=CC4C(C=C3)C4C1C2(Br)Br` (centres undefined) was tested, and the T/C (dose: 50.0 mg/kg/injection, schedule: Q01DX001 (ip), vehicle: Klucel (hydroxypropylcellulose) (HPC)) was 105 % of control, the T/C [7] was 96 % of control and the T/C [8] was 105 % of control.

`CCC(=O)c1ccc(NC(N)=S)cc1` was tested, and the T/C (dose: 20.0 mg/kg/injection, schedule: Q01DX005 (ip), vehicle: saline with Tween-80) was 94 % of control, the T/C (dose: 40.0 mg/kg/injection, schedule: Q01DX005 (ip), vehicle: saline with Tween-80) was 95 % of control and the T/C (dose: 80.0 mg/kg/injection, schedule: Q01DX005 (ip), vehicle: saline with Tween-80) was 94 % of control. The T/C (dose: 160.0 mg/kg/injection, schedule: Q01DX005 (ip), vehicle: saline with Tween-80) was 101 % of control.

In the case of `O=C1c2ccccc2C(=O)N1CC[P+](c1ccccc1)(c1ccccc1)c1ccccc1`, the T/C (dose: 1.56 mg/kg/injection, schedule: Q01DX009 (ip), vehicle: water) is reported as 106 % of control, the T/C (dose: 3.12 mg/kg/injection, schedule: Q01DX009 (ip), vehicle: water) is reported as 107 % of control and the T/C (dose: 6.25 mg/kg/injection, schedule: Q01DX009 (ip), vehicle: water) is reported as 108 % of control. The T/C (dose: 12.5 mg/kg/injection, schedule: Q01DX009 (ip), vehicle: water) was 110 % of control and the T/C (dose: 25.0 mg/kg/injection, schedule: Q01DX009 (ip), vehicle: water) was 98 % of control.

In the case of `NC(=S)N/N=C\C(=N/NC(N)=S)C(O)CO` (centres undefined), the T/C (dose: 75.0 mg/kg/injection, schedule: Q01DX001 (ip), vehicle: saline) is reported as 97 % of control and the T/C (dose: 150.0 mg/kg/injection, schedule: Q01DX001 (ip), vehicle: saline) is reported as 101 % of control.

In the case of `CN1CCCC1CCNc1nc(C(Cl)(Cl)Cl)nc2ccc(Cl)cc12` (centres undefined), the T/C (dose: 25.0 mg/kg/injection, schedule: Q01DX009 (ip), vehicle: saline with Tween-80) is reported as 106 % of control, the T/C (dose: 50.0 mg/kg/injection, schedule: Q01DX009 (ip), vehicle: saline with Tween-80) is reported as 96 % of control and the T/C [9] is reported as 106 % of control. The T/C [10] was 88 % of control.

For `O=C(NC(=S)Nc1cccc(Cl)c1)c1ccccc1F`, the T/C [1] was 87 % of control, the T/C [2] was 86 % of control and the T/C [3] was 87 % of control.

With `NC(=S)NN=C1CCSCC1` the T/C (dose: 8.4 mg/kg/injection, schedule: Q01DX Z (ip), vehicle: methylcellulose (MC)) was 96 % of control, the T/C (dose: 14.0 mg/kg/injection, schedule: Q01DX Z (ip), vehicle: methylcellulose (MC)) was 92 % of control and the T/C (dose: 23.0 mg/kg/injection, schedule: Q01DX Z (ip), vehicle: methylcellulose (MC)) was 98 % of control. The T/C (dose: 39.0 mg/kg/injection, schedule: Q01DX Z (ip), vehicle: methylcellulose (MC)) was 98 % of control.

In the case of `NC(CCSSCCC(N)C(=O)O)C(=O)O` (centres undefined), the T/C [11] is reported as 113 % of control, the T/C [12] is reported as 97 % of control and the T/C (dose: 50.0 mg/kg/injection, schedule: Q04DX002 (ip), vehicle: Klucel (hydroxypropylcellulose) (HPC)) is reported as 103 % of control. For the same molecule, the T/C [4] was 93 % of control, the T/C [5] was 101 % of control and the T/C [6] was 93 % of control.

With `Cc1ccc(NC(=O)N(CCI)N=O)cc1` the T/C (dose: 17.0 mg/kg/injection, schedule: Q01DX015 (ip), vehicle: carboxymethylcellulose (CMC)) was 110 % of control, the T/C (dose: 58.0 mg/kg/injection, schedule: Q01DX015 (ip), vehicle: carboxymethylcellulose (CMC)) was 161 % of control and the T/C (dose: 88.0 mg/kg/injection, schedule: Q01DX015 (ip), vehicle: carboxymethylcellulose (CMC)) was 157 % of control. For the same molecule, the T/C (dose: 133.0 mg/kg/injection, schedule: Q01DX015 (ip), vehicle: carboxymethylcellulose (CMC)) was 92 % of control, the T/C (dose: 177.0 mg/kg/injection, schedule: Q01DX001 (ip), vehicle: carboxymethylcellulose (CMC)) was 121 % of control and the T/C (dose: 200.0 mg/kg/injection, schedule: Q01DX015 (ip), vehicle: carboxymethylcellulose (CMC)) was 111 % of control and 113 % of control. For the same molecule, the T/C (dose: 400.0 mg/kg/injection, schedule: Q01DX001 (ip), vehicle: carboxymethylcellulose (CMC)) was 159 % of control.

In the case of `O=C(O)c1nnn(Cc2ccccc2)c1C(=O)O`, the T/C (dose: 100.0 mg/kg/injection, schedule: Q04DX002 (ip), vehicle: saline) is reported as 104 % of control, the T/C (dose: 200.0 mg/kg/injection, schedule: Q04DX002 (ip), vehicle: saline) is reported as 104 % of control and the T/C (dose: 400.0 mg/kg/injection, schedule: Q04DX002 (ip), vehicle: saline) is reported as 96 % of control.

For `S=c1[nH]c2ccccc2o1`, the T/C [9] was 93 % of control, the T/C (dose: 100.0 mg/kg/injection, schedule: Q04DX003 (ip), vehicle: other) was 101 % of control and the T/C [13] was 100 % of control. For the same molecule, the T/C (dose: 200.0 mg/kg/injection, schedule: Q04DX003 (ip), vehicle: other) was 93 % of control and the T/C (dose: 400.0 mg/kg/injection, schedule: Q04DX003 (ip), vehicle: other) was 96 % of control.

In the case of `CCc1ccccc1NC(=O)Nc1ccc(Cl)c(Cl)c1`, the T/C [3] is reported as 88 % of control, the T/C [4] is reported as 98 % of control and the T/C (dose: 200.0 mg/kg/injection, schedule: Q01DX009 (ip), vehicle: Klucel (hydroxypropylcellulose) (HPC)) is reported as 96 % of control. The T/C [5] was 93 % of control, the T/C (dose: 400.0 mg/kg/injection, schedule: Q01DX009 (ip), vehicle: Klucel (hydroxypropylcellulose) (HPC)) was 88 % of control and the T/C [6] was 104 % of control.

For `O=[N+]([O-])c1cccc(S/N=C/c2ccccc2O)c1`, the T/C (dose: 100.0 mg/kg/injection, schedule: Q04DX002 (ip), vehicle: Klucel (hydroxypropylcellulose) (HPC)) was 102 % of control, the T/C (dose: 200.0 mg/kg/injection, schedule: Q04DX002 (ip), vehicle: Klucel (hydroxypropylcellulose) (HPC)) was 97 % of control and the T/C (dose: 400.0 mg/kg/injection, schedule: Q04DX002 (ip), vehicle: Klucel (hydroxypropylcellulose) (HPC)) was 108 % of control.

In the case of `OC(COc1ccc(Cl)cc1)COc1ccc(Cl)cc1`, the T/C [14] is reported as 95 % of control, the T/C [9] is reported as 97 % of control and the T/C [10] is reported as 98 % of control. For the same molecule, the T/C [13] was 98 % of control, the T/C (dose: 200.0 mg/kg/injection, schedule: Q04DX003 (ip), vehicle: saline with Tween-80) was 103 % of control and the T/C (dose: 400.0 mg/kg/injection, schedule: Q01DX009 (ip), vehicle: saline with Tween-80) was 101 % of control. For the same molecule, the T/C (dose: 400.0 mg/kg/injection, schedule: Q04DX003 (ip), vehicle: saline with Tween-80) was 95 % of control.

In the case of `CCCCCCc1c(N)nc(N)[nH]c1=O`, the T/C [14] is reported as 98 % of control, the T/C (dose: 200.0 mg/kg/injection, schedule: Q01DX001 (ip), vehicle: saline with Tween-80) is reported as 89 % of control and the T/C (dose: 400.0 mg/kg/injection, schedule: Q01DX001 (ip), vehicle: saline with Tween-80) is reported as 98 % of control.

With `ClCC(Cl)C1CCC(Cl)C(Cl)C1` (centres undefined) the T/C (dose: 50.0 mg/kg/injection, schedule: Q01DX009 (ip), vehicle: other) was 95 % of control, the T/C (dose: 100.0 mg/kg/injection, schedule: Q01DX009 (ip), vehicle: other) was 90 % of control and the T/C (dose: 200.0 mg/kg/injection, schedule: Q01DX009 (ip), vehicle: other) was 90 % of control.

For `C=C1C(=O)OC2/C=C(\C)C(O)C/C=C(/C)CCC12` (centres undefined), the T/C (dose: 25.0 mg/kg/injection, schedule: Q04DX003 (ip), vehicle: Klucel (hydroxypropylcellulose) (HPC)) was 96 % of control, the T/C (dose: 50.0 mg/kg/injection, schedule: Q04DX003 (ip), vehicle: Klucel (hydroxypropylcellulose) (HPC)) was 102 % of control and the T/C [4] was 100 % of control.

For `Cc1c(N)c(C)c(F)c(-c2c(N)c(C)c(N)c(C)c2F)c1N`, the T/C [7] was 92 % of control, the T/C [8] was 97 % of control and the T/C (dose: 400.0 mg/kg/injection, schedule: Q01DX001 (ip), vehicle: Klucel (hydroxypropylcellulose) (HPC)) was 104 % of control.

For `C[CH2][Hg][Cl]`, the T/C [11] was 97 % of control, the T/C [12] was 94 % of control and the T/C (dose: 100.0 mg/kg/injection, schedule: Q01DX001 (ip), vehicle: saline) was 97 % of control.

For `COc1ccc(NC(=O)/C=C/c2ccc([N+](=O)[O-])cc2)cc1S(=O)(=O)F`, the T/C [4] was 98 % of control, the T/C [5] was 107 % of control and the T/C [6] was 98 % of control.
